Each structure is given as a SMILES string. Some results are limits rather than exact numbers.

IC50, Ki and melting point data for nine compounds are collected here from patent publication US20020173515A1, “Antiproliferative substituted 5-thiapyrimidinone and 5-selenopyrimidinone compounds” (priority 1992, published 2002).

In series [1] the test system is CCRF-CEM, a human lymphoblastic leukemia line of T-cell origin. Description: Cellular growth inhibition, CCRF-CEM (MTT-tetrazolium reduction). The series is classed as cell-based. The settings on record: 120 h, 5 days continuous exposure. Here is the method: (§1) Cellular growth in the presence of the compounds according to the present invention was assessed using two cell lines: the L1210 murine leukemia (ATCC CCL 219) and CCRF-CEM, a human lymphoblastic leukemia line of T-cell origin (ATCC CCL 119). Both lines were maintained in RPMI 1640 medium containing 5% heat-inactivated fetal bovine serum without antibiotics.
(§2) Growth was measured over 3 days (L1210) or 5 days (CCRF-CEM) of continuous exposure to varying concentrations of each test compound added 4 hours after initial cell plating by the MITT-tetrazolium reduction assay of Mosmann T. J. (Immunol. meth. 65, 55-63 (1983)), modified according to Alley et al. (Cancer Res. 48, 589-601 (1988)). Water insoluble derivatives were dissolved in DMSO and diluted to a final concentration of 0.5% solvent in cell cultures.

The test system of another series is L1210 murine leukemia. Description: Cellular growth inhibition, L1210 (MTT-tetrazolium reduction). The series is classed as cell-based. The settings on record: Mus musculus, L1210, 72 h; 3 days continuous exposure; read-out: Cell Line, IC50 L1210. Here is the method:
as §1, §2

A further series relates to L1210-C192. As to the kind of experiment: Cellular growth inhibition, L1210-C192. Conditions: read-out: Cell Line, IC50 L1210-C192. The class given is cell-based.
The target of series [2] is T1, GARFT domain of the human enzyme (Homo sapiens, UniProt P22102).
T1 construct: The GARFT domain of the human enzyme was used
T1 sequence (P22102 810-1010 limits assumed): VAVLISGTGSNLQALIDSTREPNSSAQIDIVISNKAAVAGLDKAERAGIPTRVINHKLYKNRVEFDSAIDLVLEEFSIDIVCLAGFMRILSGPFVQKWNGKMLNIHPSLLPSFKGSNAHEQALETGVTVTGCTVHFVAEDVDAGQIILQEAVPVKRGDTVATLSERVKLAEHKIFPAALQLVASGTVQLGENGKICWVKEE
Description: GARFT inhibition constants, Method I (Cleland; spectrophotometric assay of Young et al.). Conditions: Method I (Examples 2-5 and 10); 22° C, 20 mM Hepes pH 7.5, 20 μM GAR, variable 10-formyl-5,8-dideazafolate. The series is classed as biochemical. Here is the method:
Determination of Inhibition Constants for GARFT
The GARFT domain of the human enzyme was used. […] The assay mix contained 20 mM Hepes pH 7.5, 20 μM GAR, and variable amounts of 10-formyl-5,8-dideazafolate and inhibitor. For each inhibitor five concentrations were used ranging from 0 to approximately 3Ki. The data were plotted as the […] versus the reciprocal of the 10-formyl-5,8-dideaza-folate concentration. The inhibition constants were measured from a replot of the slopes of these lines obtained for each concentration of inhibitor versus the inhibitor concentration.

Series [3] concerns the target T2, catalytic domain of the human GARFT (Homo sapiens, UniProt P22102).
T2 construct: Reaction mixtures contained the catalytic domain of the human GARFT
T2 sequence (P22102 810-1010 limits assumed): T1 sequence (P22102 810-1010 limits assumed)
As to the kind of experiment: GARFT inhibition constants, Method II (modified Young et al. assay). The series is classed as biochemical. The settings on record: Method II (Examples 6, 7, 8 and 9); 20° C, 50 mM Tris-Cl pH 7.5, 20 μM GAR, 10 or 20 μM FDDF. Here is the method: Reaction mixtures contained the catalytic domain of the human GARFT, inhibitor, 20 μM glycinamide ribonucleotide (GAR), 10 or 20 μM N^10-formyl-5,8-dideazafolate (FDDF), and 50 mM Tris-Cl at pH 7.5.
GARFT constants (Ki) were determined from the dependence of the steady-state catalytic rate upon inhibitor and substrate concentration. […] The michaelis constant Km, was determined independently by the dependence of the catalytic rate upon FDDF concentration. Data for both the Km and Ki determinations were fitted by non-linear methods to the Michaelis equation or the Michaelis equation for competitive inhibition as appropriate.

For series [4], the target named is T3, partially purified AICARFT from cultured CEM cells (Homo sapiens, UniProt P31939).
T3 construct: partially purified AICARFT from cultured CEM cells; endogenous in cells; host or cells: CEM cells (partially purified enzyme preparation)
As to the kind of experiment: AICARFT inhibition constants (modified Black et al. assay). The class given is biochemical. Conditions: 37° C, 50 mM Tris-Cl pH 7.4, 50 μM racemic FTHF. Here is the method:
Determination of Inhibition Constants for AICARFT
The assay method of Black et al. (Anal Biochem 90, 397-401 (1978)) was modified and used as described below. Buffers were degassed under vacuum prior to the preparation of substrate solutions and degassed buffer was used in the reaction mixtures. Reaction mixtures contained partially purified AICARFT from cultured CEM cells, inhibitor, 100 μM […] (5-aminoimidazole-4-carboxamide-ribonucleotide), 50 μM of a racemic mixture of N10-formyl-tetrahydrofolate (FTHF), 25 mM KCl, 50 mM 2-mercaptoethanol and 50 mM Tris-Cl pH 7.4. The reaction was initiated with the addition of the enzyme solution to a final concentration of 0.1 mg/mL and the reaction followed by monitoring the increase in absorbance at 298 nm at 37° C. (ε298=28 mM cm^−1).
AICARFT inhibition constants (Ki) were determined from the dependence of the steady-state catalytic rate upon inhibitor and substrate concentration. The type of inhibition observed and the determination of Ki was performed as described above for inhibitors of GARFT with the appropriate substrates and the AICARFT assay. Treatment of experimental data was essentially the same.

T3 sequence (P31939 whole entry): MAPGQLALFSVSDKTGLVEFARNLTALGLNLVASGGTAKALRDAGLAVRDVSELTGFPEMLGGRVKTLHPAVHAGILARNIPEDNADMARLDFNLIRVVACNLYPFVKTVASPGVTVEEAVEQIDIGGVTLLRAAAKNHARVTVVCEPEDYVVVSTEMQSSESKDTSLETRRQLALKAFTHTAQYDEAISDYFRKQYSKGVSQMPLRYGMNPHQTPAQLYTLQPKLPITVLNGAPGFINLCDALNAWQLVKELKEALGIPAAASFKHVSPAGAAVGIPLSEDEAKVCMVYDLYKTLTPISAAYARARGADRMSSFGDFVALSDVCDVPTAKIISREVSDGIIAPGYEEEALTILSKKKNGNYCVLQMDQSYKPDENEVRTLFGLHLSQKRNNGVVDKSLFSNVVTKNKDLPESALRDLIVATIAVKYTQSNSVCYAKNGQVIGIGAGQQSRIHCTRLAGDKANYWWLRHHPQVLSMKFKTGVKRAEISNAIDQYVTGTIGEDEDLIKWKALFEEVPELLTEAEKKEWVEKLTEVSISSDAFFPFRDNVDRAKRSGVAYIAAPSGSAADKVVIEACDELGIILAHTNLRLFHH

Consider `Nc1nc(N)c(SCCCc2ccc(C(=O)N[C@@H](CCC(=O)O)C(=O)O)cc2)c(=O)[nH]1` [Example 2, N-(4-(3-[2,6-diamino-4(3H)-oxopyrimidin-5-yl)thio]propyl)benzoyl-(S)-glutamic Acid], for which the IC50 in series [1] turned out to be 65 nM; in the series with L1210 murine leukemia, 79 nM; in the series with L1210-C192, 5000 nM.
With `Nc1nc(N)c(SCCCc2ccc(C(=O)N[C@@H](CCC(=O)O)C(=O)O)s2)c(=O)[nH]1` [Example 3, N-[2-(5-[3-([2,6-diamino-4(3H)-oxopyrimidin-5-yl]thio)propyl]-thienoyl)]-(S)-glutamic Acid], the IC50 in series [1] turned out to be 49 nM; in the series with L1210 murine leukemia, 40 nM; with L1210-C192 it was 10500 nM. Also, in series [2], the affinity, expressed as Ki, was 35 nM.
`Nc1nc(N)c(SCCSc2ccc(C(=O)N[C@@H](CCC(=O)O)C(=O)O)cc2)c(=O)[nH]1` [Example 4, N-[(4-[2-([2,6-diamino-4(3H)-oxopyrimidin-5-yl]thio)ethyl]thio)benzoyl]-S-glutamic Acid]: the 50% inhibitory concentration (IC50) in series [1] was determined as 130 nM; in the series on L1210 murine leukemia, 110 nM; in the series with L1210-C192, 10000 nM. The compound further returned a Ki in series [2] of 110 nM.
`Nc1nc(N)c(SCCNc2ccc(C(=O)N[C@@H](CCC(=O)O)C(=O)O)cc2)c(=O)[nH]1` [Example 5, N-[4-(N-[2-([2,6-diamino-4(3H)-oxopyrimidin-5-yl]thio)ethyl]amino)benzoyl]-S-glutamic Acid]: the IC50 turned out to be 80 nM in series [1], 90 nM in the series with L1210 murine leukemia and 4200 nM with L1210-C192. The compound further returned a Ki in series [2] of 88 nM.
Take `Cc1cc(CCCSc2c(N)nc(N)[nH]c2=O)sc1C(=O)N[C@@H](CCC(=O)O)C(=O)O` [Example 6]: the IC50 in series [1] is 68 nM; in the series with L1210 murine leukemia, 120 nM; in the series on L1210-C192 it was greater than 25000 nM.
In the same order, the values of `Cc1cc(C(=O)N[C@@H](CCC(=O)O)C(=O)O)sc1CCCSc1c(N)nc(N)[nH]c1=O` [Example 7] are 99 nM, 89 nM and 28000 nM.
Regarding `Nc1nc(N)c(SCC2CCc3cc(C(=O)N[C@@H](CCC(=O)O)C(=O)O)sc3C2)c(=O)[nH]1` (stereo partly drawn) [Example 8, N-(6-[([2,6-diamino-4(3H)oxopyrimidin-5-yl]-thio)methyl]-4,5,6,7-tetrahydrobenzothieno-2-yl)-S-glutamic Acid], the concentration for half-maximal inhibition (IC50) in series [1] is 8 nM; in the series with L1210 murine leukemia, 10 nM; in the series on L1210-C192 it was 9000 nM.
On to `Nc1nc(N)c(SCCc2ccc(C(=O)N[C@@H](CCC(=O)O)C(=O)O)s2)c(=O)[nH]1` [Example 9, N-(5-[2-([2,6-Diamino-4(3H)-oxopyrimidin-5-yl]thio)ethyl]thieno-2-yl)-L-glutamic Acid], for which the melting point was 228 to 230 °C (dec.). The inhibitory constant (Ki) in series [3] amounted to 2000 nM. In series [1], this compound yielded a 50% inhibitory concentration (IC50) of 620 nM. This compound also had a Ki in series [4] of 35000 nM. In addition, the IC50 in the series with L1210 murine leukemia came out at 250 nM. The half-maximal inhibitory concentration (IC50) in the series with L1210-C192 turned out to be 22000 nM.
With `Nc1nc(N)c(SCCc2ccc(C(=O)N[C@@H](CCC(=O)O)C(=O)O)cc2)c(=O)[nH]1` [Example 10], the melting point lay in the range of 177 to 181 °C. For the same compound, in series [1], inhibition was half-maximal at 1200 nM (IC50). The same compound showed a Ki in series [4] of 60000 nM. In addition, in the series with L1210 murine leukemia, the IC50 came out at 1500 nM. Also, the IC50 in the series on L1210-C192 is 12000 nM. This compound also showed a Ki in series [2] of 30000 nM.
